Target: T1, human FSH receptor (Homo sapiens, UniProt P23945)
T1 sequence (P23945 18-695): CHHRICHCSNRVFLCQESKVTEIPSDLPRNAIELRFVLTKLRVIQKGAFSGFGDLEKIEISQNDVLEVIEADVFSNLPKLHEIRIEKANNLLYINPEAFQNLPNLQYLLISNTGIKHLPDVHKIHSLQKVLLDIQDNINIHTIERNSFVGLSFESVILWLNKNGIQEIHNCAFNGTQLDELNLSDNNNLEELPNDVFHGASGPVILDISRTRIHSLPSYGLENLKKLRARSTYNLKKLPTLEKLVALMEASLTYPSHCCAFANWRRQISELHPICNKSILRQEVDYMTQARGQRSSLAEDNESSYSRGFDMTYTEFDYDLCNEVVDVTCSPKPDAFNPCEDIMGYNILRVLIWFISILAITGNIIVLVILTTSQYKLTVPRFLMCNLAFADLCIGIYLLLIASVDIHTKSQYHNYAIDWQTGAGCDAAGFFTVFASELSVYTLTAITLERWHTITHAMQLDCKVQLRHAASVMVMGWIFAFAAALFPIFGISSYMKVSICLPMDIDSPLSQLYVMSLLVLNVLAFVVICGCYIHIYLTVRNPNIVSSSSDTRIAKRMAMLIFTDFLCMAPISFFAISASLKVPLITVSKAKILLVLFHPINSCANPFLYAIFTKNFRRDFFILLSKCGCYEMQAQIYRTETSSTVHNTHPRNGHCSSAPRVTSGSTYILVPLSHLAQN
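Further: CHO cells stably expressing human FSH receptor with CRE-driven firefly luciferase, luminescence read as counts per second after 4 h compound exposure in 1% DMSO.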

Procedure: Agonistic activity of compounds at the human FSH receptor expressed in CHO cells
Agonistic activity of the compounds at the human FSH receptor was determined in Chinese Hamster Ovary (CHO) cells stably transfected with the human FSH receptor and cotransfected with a cAMP responsive element (CRE)/promotor directing the expression of a firefly luciferase reporter gene. […] Cells (7,500 cells/well of a 384 well plate) were incubated in Dulbecco' minimal essential F12 modified medium (Invitrogen), supplemented with 1 µg/ml bovine insulin, 5 µg/ml human apotransferrin, 80 U/ml penicillin G and 80 µg/ml streptomycin with the test compounds (concentration between 0.0316 nM and 10.0 µM) in duplicate in a humidified atmosphere (95%) at 5-7% CO2 and 37°C. The final concentration of DMSO was 1%. After 4 hours of incubation, plates were allowed to adjust to room temperature for 1 hour. Then, Luclite (PerkinElmer) solution was added to the wells and cells were allowed to lyse for at least 1 hour at room temperature. Subsequently, luciferase activity was measured in a luminescence counter. The signal is expressed as counts per second (cps). The EC50 (concentration of the test compound that elicits half-maximal (50 %) luciferase stimulation compared to the compound's maximally attainable effect) and efficacy values (maximal effect of the test compound as percentage of the maximal effect of recombinant human FSH) of the compounds were determined using the software program MathIQ (version 2.0, ID Business Solutions Limited).

Row | EC50 | Compound
1 | 1 to 10 µM | COc1cc2c(cc1OC(C)C)-c1c(c(C(=O)N(C)C(C)(C)C)nn1-c1ccccc1C)CC2 [Example 10ca, N-tert-butyl-8-isopropoxy-7-methoxy-N-methyl-1-o-tolyl-4,5-dihydro-1H-benzo[g]lindazole-3-carboxamide]
2 | 1 to 10 µM | COc1cc2c(cc1OC(C)C)-c1c(c(C(=O)N(C)C(C)(C)C)nn1-c1cccc([N+](=O)[O-])c1)CC2 [Example 8ca, N-tert-butyl-8-isopropoxy-7-methoxy-N-methyl-1-(3-nitrophenyl)-4,5-dihydro-1H-benzo[g]indazole-3-carboxamide]
3 | 1 to 10 µM | C=Cc1ccccc1-n1nc(C(=O)N(C)C(C)(C)C)c2c1-c1cc(OC(C)C)c(OC)cc1CC2 [Example 9cc, N-tert-butyl-8-isopropoxy-7-methoxy-N-methyl-1-(2-vinylphenyl)-4,5-dihydro-1H-benzo[g]indazole-3-carboxamide]
4 | 1 to 10 µM | COc1cc2c(cc1OC)-c1c(c(C(=O)N3CCCN(C(C)=O)CC3)nn1-c1ccsc1)CC2 [Example 14e, 1-(4-(7,8-dimethoxy-1-(thiophen-3-yl)-4,5-dihydro-1H-benzo[g]indazole-3-carbonyl)-1,4-diazepan-1-yl)ethanone]
